This is an account of results in patent US11841369B2, “Method for improving quality of therapeutic cell through real-time glutathione measurement” (CELL2IN, INC., priority 2017, dated 2023).

Assay [1] deals with hUC-MSCs. Briefly: SDF1α- and PDGF-AA-induced migration capacity of hUC-MSCs. Type of assay: cell-based, human. Conditions: 125 or 250 μg/mL AA2G, three days. The protocol: The inventors observed an effect of the material on stem cells by treating each stem cells with a material for enhancing a glutathione evaluation parameter. When hUC-MSCs were subcultured in a L-AA2G-containing medium, CFU-F, migration capacity, and an anti-inflammatory effect were observed. A CFU-F assay (n=3) was performed by treating hUC-MSCs with 125 or 250 μg/mL of AA2G for three days. As shown in FIGS. 16A and 16B, it was confirmed that, when AA2G was treated, CFU-F increased. In addition, as hUC-MSCs were treated with 125 or 250 μg/mL of AA2G for three days, PDGF-AA-induced migration capacity (n=3) was analyzed. As shown in FIGS. 17A and 17B, it was confirmed that the migration capacity was increased by AA2G treatment. In addition, the reduction in T cell proliferation, a reduction in T cell differentiation, and the promotion of Treg cell differentiation were observed by treating hUC-MSCs with 125 or 250 μg/mL of AA2G for three days. […] Meanwhile, hUC-MSCs were cultured with a glutathione precursor such as γ-glutamyl cysteine (GGC, 0.1, 0.25, and 0.5 mM). A CFU-F assay (n=3) was performed by treating hUC-MSCs with each concentration of GGC for 2 hours. […] In addition, SDF1α and PDGF-AA-induced migration capacities (n=3) were analyzed for hUC-MSCs without treatment with GGC, and SDF1α- and PDGF-AA-induced migration abilities (n=3) were analyzed by treating hUC-MSCs with the increasing concentrations of GGC. STI571 was used as a PDGFR kinase inhibitor. As shown in FIGS. 20A to 20C, it was confirmed that, according to an increase in GGC treatment concentration, SDF1α- and PDGF-AA-induced migration capacities were enhanced.

For assay [2], the system named is T cells. Nature of the assay: Anti-inflammatory effect of treated hUC-MSCs: T cell proliferation, T cell differentiation, Treg cell differentiation. The settings on record: hUC-MSCs treated with 125 or 250 μg/mL AA2G, three days. Type of assay: cell-based. The protocol: The inventors observed an effect of the material on stem cells by treating each stem cells with a material for enhancing a glutathione evaluation parameter. When hUC-MSCs were subcultured in a L-AA2G-containing medium, CFU-F, migration capacity, and an anti-inflammatory effect were observed. A CFU-F assay (n=3) was performed by treating hUC-MSCs with 125 or 250 μg/mL of AA2G for three days. As shown in FIGS. 16A and 16B, it was confirmed that, when AA2G was treated, CFU-F increased. In addition, as hUC-MSCs were treated with 125 or 250 μg/mL of AA2G for three days, PDGF-AA-induced migration capacity (n=3) was analyzed. As shown in FIGS. 17A and 17B, it was confirmed that the migration capacity was increased by AA2G treatment. In addition, the reduction in T cell proliferation, a reduction in T cell differentiation, and the promotion of Treg cell differentiation were observed by treating hUC-MSCs with 125 or 250 μg/mL of AA2G for three days.
In addition, hUC-MSCs were cultured with ferrostatin-1 (0.2, 1, 2 and 4 μM) and liproxstatin-1 (0.1, 0.5, 1 and 2 μM), which control a glutathione level in cells by inhibiting lipid oxidation. […] Meanwhile, the hUC-MSCs were treated with 1 μM ferrostatin-1 for 24 hours, 0.2 mM GGC for 2 hours, and 2 mM GSH-EE for 2 hours. As a result, the reduction in T cell proliferation ability and the reduction in T cell differentiation capacity were observed, and promotion of Treg cell differentiation was observed.

Regarding `O=C1O[C@H]([C@@H](O)CO)C(O)=C1O[C@H]1O[C@H](CO)[C@@H](O)[C@H](O)[C@H]1O` [AA2G, ascorbic acid 2-glucoside], in assay [1], the PDGF-AA-induced migration capacity entry was “increased”. Besides, in assay [2], the T cell differentiation result is given as “reduction”, the T cell proliferation result is given as “reduction”, the Treg cell differentiation result is “promotion” and the “anti-inflammatory effect of stem cells” value is recorded as “exhibited”.
